Data reported in ChEMBL document CHEMBL1132088, “Three-dimensional structure-function relationship of vitamin D: side chain location and various activities” (1999).

Experiments:
[1] = target: T1, Vitamin D-binding protein (Rattus norvegicus) (UniProt P04276); assay: Binding affinity for rat Vitamin D binding protein; design: reference not given here
T1 sequence (whole entry): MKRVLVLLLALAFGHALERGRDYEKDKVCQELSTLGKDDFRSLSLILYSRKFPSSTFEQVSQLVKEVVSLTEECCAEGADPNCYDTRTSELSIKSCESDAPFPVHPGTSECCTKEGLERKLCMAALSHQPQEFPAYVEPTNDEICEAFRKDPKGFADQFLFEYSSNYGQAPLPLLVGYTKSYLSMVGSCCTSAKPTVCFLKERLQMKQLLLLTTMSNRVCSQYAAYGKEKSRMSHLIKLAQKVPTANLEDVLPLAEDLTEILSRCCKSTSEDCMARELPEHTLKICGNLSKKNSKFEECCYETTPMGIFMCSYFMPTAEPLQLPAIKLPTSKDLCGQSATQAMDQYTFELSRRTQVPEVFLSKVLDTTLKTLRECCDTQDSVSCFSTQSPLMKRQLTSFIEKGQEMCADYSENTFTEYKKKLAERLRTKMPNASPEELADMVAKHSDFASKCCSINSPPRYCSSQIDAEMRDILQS

[2] = target: T2, Vitamin D3 receptor (Sus scrofa) (UniProt A3RGC1); assay: (§1) Affinity for porcine Vitamin D3 receptor
T2 sequence (whole entry): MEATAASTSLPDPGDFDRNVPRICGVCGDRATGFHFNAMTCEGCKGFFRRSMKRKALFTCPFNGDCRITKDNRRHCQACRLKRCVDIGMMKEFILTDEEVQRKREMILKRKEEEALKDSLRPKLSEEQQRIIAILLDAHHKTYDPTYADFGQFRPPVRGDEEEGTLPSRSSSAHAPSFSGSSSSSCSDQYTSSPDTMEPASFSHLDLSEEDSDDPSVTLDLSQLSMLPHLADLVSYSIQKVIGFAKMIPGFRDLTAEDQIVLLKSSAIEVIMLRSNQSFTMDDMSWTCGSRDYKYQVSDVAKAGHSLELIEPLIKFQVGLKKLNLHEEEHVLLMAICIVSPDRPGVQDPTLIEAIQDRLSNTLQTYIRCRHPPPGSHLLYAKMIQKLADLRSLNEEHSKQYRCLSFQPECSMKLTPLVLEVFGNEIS

Keratinocyte cell line [3] = assay: In vitro activity expressed as relative activity to inhibit the proliferation of primary cultures of human foreskin keratinocytes by measuring [3H]thymidine incorporation
[4] = target: T3, Vitamin D3 receptor (Bos taurus) (UniProt Q28037); assay: Affinity for bovine Vitamin D3 receptor; design: reference not given here
T3 sequence (whole entry): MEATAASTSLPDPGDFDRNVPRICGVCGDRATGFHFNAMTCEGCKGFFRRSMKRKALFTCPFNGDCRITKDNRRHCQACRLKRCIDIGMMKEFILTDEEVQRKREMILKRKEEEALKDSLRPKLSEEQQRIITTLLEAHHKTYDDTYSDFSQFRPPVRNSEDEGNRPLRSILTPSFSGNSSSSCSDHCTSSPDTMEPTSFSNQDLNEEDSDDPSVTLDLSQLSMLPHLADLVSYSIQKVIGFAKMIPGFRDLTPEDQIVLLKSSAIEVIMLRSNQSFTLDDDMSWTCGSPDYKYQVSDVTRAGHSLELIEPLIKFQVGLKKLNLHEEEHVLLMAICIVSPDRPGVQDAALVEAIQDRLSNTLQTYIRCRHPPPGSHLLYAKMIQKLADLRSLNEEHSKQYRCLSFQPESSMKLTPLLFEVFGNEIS

Rattus norvegicus [5] = assay: In vivo calcemic activity expressed as relative activity for Intestinal calcium transport (ICA) in vitamin D deficient rats
[6] = Gene transcriptional activity against osteopontin (OPN); assay type: functional
[7] = target: T2, Vitamin D3 receptor (Sus scrofa); assay: as §1; design: reference not given here
HL-60 = assay: In vitro activity expressed as relative activity to induce the differentiation of human promyelocytic leukemia (HL-60) cells by NBT reduction assay
Rattus norvegicus [8] = assay: In vivo calcemic activity expressed as relative activity for Bone calcium mobilization (BCM) in vitamin D deficient rats
MCF7 [9] = assay: In vitro activity expressed as relative activity to inhibit the proliferation of human breast cancer cells (MCF-7) by measuring [3H]thymidine incorporation
MCF7 [10] = assay: as above; remark: listed apart in the source
Keratinocyte cell line [11] = assay: In vitro activity expressed as relative activity to inhibit the proliferation of primary cultures of human foreskin keratinocytes by measuring [3H]thymidine incorporation; remark: listed apart in the source

C=C1/C(=C\C=C2/CCC[C@]3(C)[C@@H]([C@@H](C)CCCC(C)(C)O)CC[C@@H]23)C[C@@H](O)C[C@@H]1O showed an Activity [1] of 4000 and an Activity [2] of 500.

C=C1/C(=C\C=C2/CCC[C@]3(C)[C@@H]([C@@H](C)[C@H](C)CCC(C)(C)O)CC[C@@H]23)C[C@@H](O)C[C@@H]1O gave a relative activity (Keratinocyte cell line [3]) of 9000%, an Activity [4] of 1100 and a relative activity (Rattus norvegicus [5]) of 51%. For the same compound, the relative activity [6] was 10000%, the Activity [1] was under 0.25 and the Activity [7] was 2000. For the same compound, the relative activity (HL-60) was 12000%, the relative activity (Rattus norvegicus [8]) was 220% and the relative activity (MCF7 [9]) was 15000%.

Compound C=C1/C(=C\C=C2/CCC[C@]3(C)[C@@H]([C@H](C)[C@@H](C)CCC(C)(C)O)CC[C@@H]23)C[C@@H](O)C[C@@H]1O has an Activity [4] of 33, a relative activity (Rattus norvegicus [5]) of 50% and a relative activity [6] of 22%. The Activity [1] was 67, the Activity [7] was 33 and the relative activity (HL-60) was 100%. It also gave a relative activity (Rattus norvegicus [8]) of 26%.

Compound C=C1/C(=C\C=C2/CCC[C@]3(C)[C@@H]([C@@H](C)[C@@H](C)CCC(C)(C)O)CC[C@@H]23)C[C@@H](O)C[C@@H]1O has a relative activity (Keratinocyte cell line [3]) of 60%, an Activity [4] of 0.4 and a relative activity (MCF7 [10]) of 70%. The relative activity (Rattus norvegicus [5]) was under 1%, the relative activity [6] was 3% and the Activity [1] was under 0.25. It also gave an Activity [7] of 1, a relative activity (HL-60) of 8% and a relative activity (Rattus norvegicus [8]) of 5%.

Compound C=C1/C(=C\C=C2/CCC[C@]3(C)[C@@H]([C@H](C)[C@H](C)CCC(C)(C)O)CC[C@@H]23)C[C@@H](O)C[C@@H]1O has an Activity [4] of 2, a relative activity (Rattus norvegicus [5]) of 25% and a relative activity [6] of 1%. The Activity [1] was 0.45, the Activity [7] was 1.7 and the relative activity (HL-60) was 1.3%. For the same compound, the relative activity (Rattus norvegicus [8]) was 32%.

C=C1/C(=C\C=C2/CCC[C@]3(C)[C@@H]([C@H](C)CCCC(C)(C)O)CC[C@@H]23)C[C@@H](O)C[C@@H]1O [CALCITRIOL] gave an Activity [4] of 100, a relative activity (MCF7 [10]) of 100% and a relative activity (Rattus norvegicus [5]) of 100%. It also gave a relative activity [6] of 100%, an Activity [1] of 100 and an Activity [7] of 100. For the same compound, the relative activity (HL-60) was 100%, the relative activity (Keratinocyte cell line [11]) was 100% and the relative activity (Rattus norvegicus [8]) was 100%.
